Laboratory results: patent US10344330B2, “Glatiramer acetate response biomarker mRNA potency assay” (Mylan Inc., priority 2013, dated 2019)

Tests used:
[1] = tested on: IFN-γ secreted by LN cells; assay: IFN-γ secretion by GA-stimulated LN cells, MSD ELISA, 21 and 45 hr (Example II); format: cell-based, mouse
[2] = tested on: mIL-5 mRNA in primary LN cells; assay: mIL-5 mRNA by real-time PCR in stimulated LN cells of immunized (SJL/J×BALB/C)F1 mice (Example I); format: cell-based, mouse; settings: for mIL-5 mRNA Level: Experiment 1, GA-immunized (SJL/J×BALB/C)F1; for mIL-5 mRNA: not normalized to a reference gene
Description: For each of the three experiments summarized in Table 1, female (SJL/J×BALB/C) F1 hybrid (Jackson Laboratory) mice were immunized by footpad injection with either 250 μg GMA (Mylan Pharmaceuticals, Inc.) and CFA (Sigma Aldrich), or Mannitol and CFA (as a negative control). The GA solution was diluted to 5 mg/mL with Dulbecco's Phosphate-buffered saline. A dose solution was then prepared by mixing the diluted GA solution (5 mg/mL) and CFA (1:1) until well-emulsified. Each mouse received a total injection volume of 0.1 mL (250 μg GA). Animals were immunized on Day 0. Immunized animals were sacrificed via cervical dislocation on Day 10 following immunization. […] The LN were washed 3 times with −5 mL of RPMI medium, and the LN cells isolated by pressing the LN with a syringe plunger. […] The cell suspension was centrifuged at about 200×g for 10 minutes at about 4° C. and re-suspended in ice cold enriched DCCM-1 medium. The LN cells (2.5×10^6 cells/cm^2) were plated in the wells of a 48-well tissue culture plate and stimulated with GA or controls.
Expression of cytokine mRNA was quantitatively analyzed using a Real-Time PCR system (7500, Applied Biosystems).
(DCCM1 from Beit Haemek Ltd.; Cat. No. 05 010 1A). There was no MBP treatment for the 2-hour groups.
Group 1B animals were female (SJL/J×BALB/C) F1 hybrid (Jackson Laboratory) mice immunized by footpad injection with either 250 μg GA and CFA, or Mannitol and CFA (as a negative control). A dose solution was prepared by mixing a diluted GA solution (5 mg/mL) and CFA (1:1). Each mouse received a total injection volume of […] (250 μg GA). Animals were immunized on Day 0. Immunized animals were sacrificed via cervical dislocation on Day 10 following immunization. Lymph nodes from immunized mice were removed and isolated. LN cells (2.5×10^6 cells/cm^2) were plated in the wells of a 48-well tissue culture plate for stimulation with GA.
Expression of cytokine mRNA was quantitatively analyzed 4 and 6 hours after using a Real-Time PCR system (7500, Applied Biosystems).

[3] = tested on: mouse IL-4 mRNA in primary LN cells; assay: Validation: mouse IL-4 mRNA by real-time PCR in LN cells of GA-immunized SJL/J mice (Example IV); format: cell-based; settings: for IL-4 mRNA Fold Change: 2.5 μg/mL, normalized to GAPDH; for induction of IL-4 mRNA: 20 μg/mL GA, 6 hours
Description: (§1) Three experiments were conducted using one batch of GA (Mylan GMA). The primary LN cells were stimulated by incubation with 6 concentrations (0.3 to 20 μg/mL) of the GA for 6 hours at 37° C. Total RNA was isolated from LN cells stimulated with GA or controls. cDNA was synthesized from the RNA and the mRNA levels of seven mouse cytokines, IL-2, IL-4, IL-5, IL-10, IL-13, interferon (IFN)-γ and tumor necrosis factor (TNF)-α, were quantitatively measured by a real-time PCR method.
(§2) Female SJL/J mice at 8-9 weeks of age were immunized by injection into four footpads using a 1 mL syringe with a 27-G, ½-inch needle. Each mouse received a total injection volume of 0.1 mL of GMA emulsified in CFA (about 10 μL into each of the front footpads and 40 μL into each of the hind footpads). Animals were immunized on Day 0. After injection, animals were placed back in their cages and housed ≤6 animals per cage.
(§3) Immunized animals were sacrificed by cervical dislocation on Day 10 following immunization. […] After centrifugation at about 200×g for 10 minutes at 4° C., the cell pellet was re-suspended in 40 mL of DCCM-1 medium for cell counting. A Trypan blue exclusion method was used to determine the cell density of viable cells in the suspension. After cell counting, the LN cells were suspended in enriched DCCM-1 medium at density of 7.5×10^6 cells/mL. LN cells (0.12 mL) were plated into each well of 96-well tissue culture plates.
(§4) Dilutions of GA (Mylan GMA) were prepared using enriched DCCM-1 medium as the diluent. GA dilutions (0.12 mL) were added in the assigned wells of 96-well tissue culture plates. The same volume of LN cells (0.12 mL) isolated from immunized animals was added to the assigned wells. A positive control and a negative control were always performed in the same assay by treating LN cells with 2.5 μg/mL ConA and 10 μg/mL MBP, respectively. The LN cells with mock stimulation protocols (enriched DCCM-1 medium) were used to monitor the background mRNA level of a cytokine. The plates were incubated at 37° C. in a humidified 5% CO2 incubator for 6 hr.
(§5) At the end of incubation time, culture medium from stimulated cells was removed by aspiration and the cells were lysed using Qiagen or Promega lysis buffer. The lysate was transferred to an RNeasy Mini column (Qiagen) or wells of the SV 96 Binding Plate (Promega) for RNA isolation and cDNA synthesis. All tested samples were run in triplicate.
(§6) The SV 96 Total RNA Isolation System (Promega; Cat. No. Z3505) was used for total RNA isolation. Assay procedures were carried out according to each manufacturer's protocol. RNA samples were stored at −70° C. until use. […] The assay procedure was carried out according to the manufacturer's protocol.
(§7) The plate was centrifuged at 2000 rpm for 2 minutes at 4° C. to spin down the contents and eliminate air bubbles. Samples were prepared and run in a 96-well plate using a Life Technologies Real-Time PCR system (previously Applied Biosystems; Model No. 7500) according to the manufacturer's recommendation. The mix for the reference gene was prepared in the same way using the reference gene primer.
(§8) A relative quantitation method was used to analyze changes in mIL-2, mIL-4, mIL-5, mIL-10, mIL-13, mIFN-γ and TNF-α expression in GA treated samples relative to the untreated control (Enriched DCCM-1 treated) samples using the following program:
(§9) Levels of mouse cytokine amplicons were normalized to an internal probe level (GAPDH) from the same samples. The following equations were used to calculate the relative increase in response to GA stimulation compared to the control sample (Enriched DCCM1 sample): […]

[4] = tested on: mouse IL-2 mRNA in primary LN cells; assay: Validation: mouse IL-2 mRNA by real-time PCR in LN cells of GA-immunized SJL/J mice, three experiments (Example IV); format: cell-based; settings: for IL-2 mRNA Fold Change: 2.5 μg/mL, normalized to GAPDH; for induction of IL-2 mRNA: 20 μg/mL GA, 6 hours
Description: as §1, §2, §3, §4, §5, §6, §7, §8, §9

[5] = 2 hour post stimulation, GA 10, ConA 2.5 μg/mL
[6] = 4 hour post stimulation, GA 10, MBP 10, ConA 2.5 μg/mL
[7] = 6 hour post stimulation, GA 10, MBP 10, ConA 2.5 μg/mL
[8] = 24 hour post stimulation, GA 10, MBP 10, ConA 2.5 μg/mL
[9] = Group 1B (GA + CFA), 4 hours post-stimulation, GA 10, MBP 10, ConA 2.5 μg/mL
[10] = Group 1B (GA + CFA), 6 hours post-stimulation, GA 10, MBP 10, ConA 2.5 μg/mL
[11] = Group 2B (Mannitol + CFA), 4 hours post-stimulation, GA 10, MBP 10, ConA 2.5 μg/mL
[12] = Group 2B (Mannitol + CFA), 6 hours post-stimulation, GA 10, MBP 10, ConA 2.5 μg/mL
[13] = SJL/J, different concentrations of GA vs unstimulated LN cells

## Concanavalin A [ConA, reference compound]
[1]; BALB/cByJ, immunized GA Intraplantar, 21 hr
  IFN-γ secretion response ratio (treated cell medium to control DCCM1 medium): 9.70
[1]; BALB/cByJ, immunized GA Intraplantar, 45 hr
  IFN-γ secretion response ratio (treated cell medium to control DCCM1 medium): 11.40
[1]; BALB/cByJ, immunized GA Lower Limb, 21 hr
  IFN-γ secretion response ratio (treated cell medium to control DCCM1 medium): 6.24
[1]; BALB/cByJ, immunized GA Lower Limb, 45 hr
  IFN-γ secretion response ratio (treated cell medium to control DCCM1 medium): 7.33
[1]; BALB/cByJ, immunized Mannitol Intraplantar, 21 hr
  IFN-γ secretion response ratio (treated cell medium to control DCCM1 medium): 4.40
[1]; BALB/cByJ, immunized Mannitol Intraplantar, 45 hr
  IFN-γ secretion response ratio (treated cell medium to control DCCM1 medium): 3.48
[1]; C57BL10J, immunized GA Intraplantar, 21 hr
  IFN-γ secretion response ratio (treated cell medium to control DCCM1 medium): 11.55
[1]; C57BL10J, immunized GA Intraplantar, 45 hr
  IFN-γ secretion response ratio (treated cell medium to control DCCM1 medium): 53.10
[1]; C57BL10J, immunized GA Lower Limb, 21 hr
  IFN-γ secretion response ratio (treated cell medium to control DCCM1 medium): 5.07
[1]; C57BL10J, immunized GA Lower Limb, 45 hr
  IFN-γ secretion response ratio (treated cell medium to control DCCM1 medium): 5.15
[1]; C57BL10J, immunized Mannitol Intraplantar, 21 hr
  IFN-γ secretion response ratio (treated cell medium to control DCCM1 medium): 4.05
[1]; C57BL10J, immunized Mannitol Intraplantar, 45 hr
  IFN-γ secretion response ratio (treated cell medium to control DCCM1 medium): 5.90
[1]; CD-1, immunized GA Intraplantar, 21 hr
  IFN-γ secretion response ratio (treated cell medium to control DCCM1 medium): 10.14
[1]; CD-1, immunized GA Intraplantar, 45 hr
  IFN-γ secretion response ratio (treated cell medium to control DCCM1 medium): 5.47
[1]; CD-1, immunized GA Lower Limb, 21 hr
  IFN-γ secretion response ratio (treated cell medium to control DCCM1 medium): 1.90
[1]; CD-1, immunized GA Lower Limb, 45 hr
  IFN-γ secretion response ratio (treated cell medium to control DCCM1 medium): 1.89
[1]; CD-1, immunized Mannitol Intraplantar, 21 hr
  IFN-γ secretion response ratio (treated cell medium to control DCCM1 medium): 9.35
[1]; CD-1, immunized Mannitol Intraplantar, 45 hr
  IFN-γ secretion response ratio (treated cell medium to control DCCM1 medium): 9.68
[2]; [5]
  mIL-5 mRNA Level: 3.6 fold change vs control
[2]; [6]
  mIL-5 mRNA Level: 17.1 fold change vs control
[2]; [7]
  mIL-5 mRNA Level: 13.1 fold change vs control
[2]; [8]
  mIL-5 mRNA Level: 0.5 fold change vs control
[2]; [9]
  mIL-5 mRNA: 20.4 fold change vs control
[2]; [10]
  mIL-5 mRNA: 26.7 fold change vs control
[2]; [11]
  mIL-5 mRNA: 16.6 fold change vs control
[2]; [12]
  mIL-5 mRNA: 36.5 fold change vs control
[3]; Experiment 1
  IL-4 mRNA Fold Change: 148.6 fold
[3]; Experiment 2
  IL-4 mRNA Fold Change: 21.0 fold
[3]; Experiment 3
  IL-4 mRNA Fold Change: 53.8 fold
[4]; Experiment 1
  IL-2 mRNA Fold Change: 147.1 fold
[4]; Experiment 2
  IL-2 mRNA Fold Change: 72.0 fold
[4]; Experiment 3
  IL-2 mRNA Fold Change: 188.6 fold

## L-glutamic acid polymer with L-alanine, L-lysine and L-tyrosine, acetate (salt) [GA]
[1]; LN cells from each of the three mouse strains
  IFN-γ secretion, dose response to GA (in words): dose-dependent manner
[2]; [5]
  mIL-5 mRNA Level: 1.6 fold change vs control
[2]; [6]
  mIL-5 mRNA Level: 4.8 fold change vs control
[2]; [7]
  mIL-5 mRNA Level: 5.1 fold change vs control
[2]; [8]
  mIL-5 mRNA Level: 1.9 fold change vs control
[2]; [9]
  mIL-5 mRNA: 4.0 fold change vs control
[2]; [10]
  mIL-5 mRNA: 4.3 fold change vs control
[2]; Group 1B, 4 and 6 hours (text summary of Table 10)
  mIL-5 mRNA level increase vs DCCM-1-stimulated control: at least 4 fold
[2]; [11]
  mIL-5 mRNA: 1.0 fold change vs control
[2]; [12]
  mIL-5 mRNA: 1.2 fold change vs control
[3]; SJL/J, Exp 1
  induction of IL-4 mRNA: 41.3 fold
[3]; SJL/J, Exp 2
  induction of IL-4 mRNA: 11.8 fold
[3]; SJL/J, Exp 3
  induction of IL-4 mRNA: 27.6 fold
[3]; [13]
  induction of IL-4 mRNA (in words): robust induction
[4]; SJL/J, Exp 1
  induction of IL-2 mRNA: 31.7 fold
[4]; SJL/J, Exp 2
  induction of IL-2 mRNA: 27.8 fold
[4]; SJL/J, Exp 3
  induction of IL-2 mRNA: 42.0 fold
[4]; [13]
  induction of IL-2 mRNA (in words): robust induction
